This is an account of results in patent US9549988B2, “Pharmaceutical compounds targeted by MIF affinity-tethered moieties” (RJS Biologics LLC, priority 2013, dated 2017).

The subject of assay [1] is large cell lung cancer cell lines (NCI-H460). As to the kind of experiment: WST-8 cellular proliferation assay, NCI-H460 lung cancer cells. The class given is cell-based. As to conditions: for IC50: Table 4, EGFRi derivatives, WST-8, read-out: IC50 Cancer Cells ATCC NCI-H460; for Selectivity: Table 4, 1° fibroblasts versus NCI-H460 cancer cells. Background: Tetrazolium dyes change colour on reduction, which living cells bring about.

Assay [2] deals with Normal Human Adult Dermal Fibroblasts (ATCC PCS-201-012). As to the kind of experiment: WST-8 cellular proliferation assay, primary dermal fibroblasts. Type of assay: cell-based. As to conditions: for IC50: read-out: IC50 1° Fibroblasts, Table 4, EGFRi derivatives. How it is done:
(§1) Assays were performed according to the manufactures instructions.

The subject of assay [3] is THP-1 leukemia cells mixed with non-cancerous PBMC cells. The assay can be described thus: Flow cytometry drug uptake in mixed THP-1 / PBMC population. Conditions: FIG. 21; THP-1 added to PBMC; 0.8 μM; 2-2.5 h; PE channel. The class given is cell-based, human. As for the experimental part:
This example illustrates an in vitro experiment using predictive models of cancer to show the cellular specificity and potential therapeutic utility of the inventive compounds. The human leukemic cell line THP-1 was grown in RPMI 1640 medium with penicillin, streptomycin, and containing 25 mM Hepes, 0.05 mM 2-mercaptoethanol, 10% fetal bovine serum and 2 mM L-glutamine. Cells washed 2× with Gibco Life Sciences (Grand Island, N.Y.) AIM-V serum free medium and then were inoculated into 96 well microtiter plates in 100 μL at plating densities ranging from 25,000 to 100,000 cells/well. Five to ten million frozen peripheral blood mononuclear cells (PBMCs) (Astarte Biologics, LLC. (Redmond, Wash.)) in a solution of 10% DMSO, 2% human serum albumin in phosphate buffered saline were thawed and immediately washed in AIM-V media. An approximately equal number of these cells (25,000 to 100,000 cells/well) were added to the experimental plate. Doxorubicin was added to a final concentration of 0.8 μM. The microtiter plates were incubated at 37° C., 5% CO2, 95% air and 100% relative humidity for 2-2.5 h then drug uptake was quantified by flow cytometry for example using a BD FACSCanto II (San Jose, Calif.). Doxorubicin uptake was evaluated in the PE channel. Individual cell populations were identified by size, shape and through the use of dye labeled antibodies.
For orientation: Flow cytometry measures light scatter and fluorescence of single cells or particles in a stream.

The next assay deals with THP-1 leukemia cells. As to the kind of experiment: Flow cytometry uptake by THP-1 cells in presence of ISO-1. Conditions: FIG. 22, 2 hrs at 37° C. The class given is cell-based, human. As for the experimental part: This example illustrates an in vitro experiment using predictive models of cancer to show the cellular specificity and potential therapeutic utility of the inventive compounds. The human leukemic cell line THP-1 was grown AIM-V serum free medium Gibco Life Sciences (Grand Island, N.Y.). […] Then the washed THP-1 cells were added to the drug dilutions to start the experiment ˜75,000 cells per well. Test compounds were incubated 2 hrs at 37° C., then the plate was read by flow cytometry BD Canto 2 (80 μl˜25,000 cells). A population of Single Round “average” cells was selected by FSC and SSC—constituting %70 of the total cell population examined. The amount of doxorubicin uptake was evaluated for this population in the PE channel.

For assay [4], the system named is large cell immunoblastic lymphoma cell lines (ATCC SR). The assay can be described thus: WST-8 cellular proliferation assay, ATCC SR lymphoma cells. Type of assay: cell-based. As to conditions: Table 2; 1° fibroblasts versus ATCC SR cancer cells. How it is done: as §1
The subject of assay [5] is Human tumor cell lines of a cancer screening panel. As to the kind of experiment: Sulforhodamine B (SRB) cellular proliferation assay, cancer screening panel. The class given is cell-based. As to conditions: 10 μM. As for the experimental part:
This example illustrates several in vitro experiments in predictive models of cancer to show the potential therapeutic utility of the disclosed compounds. Human tumor cell lines of a cancer screening panel were grown in RPMI 1640 medium containing 5% fetal bovine serum and 2 mM L-glutamine. Cells were inoculated into 96 well microtiter plates in 100 μL at plating densities ranging from 5,000 to 40,000 cells/well depending on the doubling time of individual cell lines. After cell inoculation, the microtiter plates were incubated at 37° C., 5% CO2, 95% air and 100% relative humidity for 24 h prior to addition of experimental drugs.
After 24 h, two plates of each cell line were fixed in situ with trichloroacetic acid (TCA), to represent a measurement of the cell population for each cell line at the time of drug addition (T=zero). Experimental drugs were solubilized in dimethyl sulfoxide at 400-fold the desired final maximum test concentration and stored frozen prior to use. […]
Following drug addition, the plates were incubated for an additional 48 h at 37° C., 5% CO2, 95% air, and 100% relative humidity. […] Bound stain was subsequently solubilized with 10 mM trizma base, and the absorbance was read on an automated plate reader at a wavelength of 515 nm. […] Using the seven absorbance measurements [time zero, (T=zero), control growth, (C), and test growth in the presence of drug at the five concentration levels (Ti)], the percentage growth was calculated at each of the drug concentrations levels.
Percentage growth inhibition was calculated as: [(Ti−Tzero)/(C−Tzero)]×100 for concentrations for which Ti>/=Tzero [(Ti−Tzero)/Tzero]×100 for concentrations for which Ti<Tzero. Three dose response parameters were calculated for each experimental agent. […] The drug concentration resulting in total growth inhibition (TGI) was calculated from Ti=Tzero. […] The same procedures were used to create FIGS. 19 and 20 except a single 10 μM data point was recorded for each cell line.

[6] abbreviates: FIG. 20, 14 diverse cancer cell lines.

Read-outs that look alike come from different tables or passages of the source.

As a reminder, the IC50 is the concentration that inhibits the measured activity by half. As for `COc1cc2ncnc(Nc3ccc(F)c(Cl)c3)c2cc1NC(=O)/C=C/CN1CCCCC1` [Docomitinib (PF-00299804), Docomitinib], in assay [1], the IC50 was 10.6 µM and the Selectivity stood at 0.08. Also, the IC50 in assay [2] is 0.89 µM.

In the case of `COc1cccc2c1C(=O)c1c(O)c3c(c(O)c1C2=O)C[C@@](O)(C(=O)CO)C[C@@H]3O[C@H]1C[C@H](N)[C@H](O)[C@H](C)O1` [Doxorubicin], the “preferential cellular uptake by cancer cells over non-cancerous cells” value in assay [3] is recorded as “little preference for the cancer cell line”. The “inhibition of cellular uptake by ISO-1” value in the assay on THP-1 leukemia cells is reported as “not inhibited”. The same compound had an IC50 1° Fibroblasts in assay [2] (Table 2, Doxorubicin derivatives) of 0.185 ± 0.5 µM. Also, in assay [4], the Selectivity is 26.

Take `COc1cc2c(Nc3ccc(F)c(Cl)c3)ncnc2cc1OCCOCCNC(=O)COc1ccc(Cn2c(=O)oc3ccc(C)cc32)cc1O` [RJS012_1]: the IC50 in assay [1] (Homo sapiens, NCI-H460) came to 3.6 µM; in assay [2] (Homo sapiens, Fibroblast), 6.7 µM. The compound also yielded a Selectivity in assay [1] of 1.9.

In the case of `C#Cc1cccc(Nc2ncnc3cc(OCCOC)c(OCCOC)cc23)c1` [Tarceva ® (Erlotinib), Erlotinib], the IC50 is 12.6 µM in assay [1] (Homo sapiens, NCI-H460) and 4.7 µM in assay [2] (Homo sapiens, Fibroblast). This compound also gave a Selectivity in assay [1] of 0.37.

On to `Cc1ccc2oc(=O)n(Cc3ccc(OCC(=O)O)c(O)c3)c2c1` [compound 7, (2-hydroxy-4-[(5-methyl-2-oxo-1,3-benzoxazol-3(2H)-yl)methyl]phenoxy)acetic acid], for which the “inhibition of cancer cell growth (average % inhibition)” value was “little if any potency” in assay [5] (FIG. 19, 17 cancer cell lines) and “little potency” in assay [5] (setting [6]).

On to `Cc1ccc2oc(=O)n(Cc3ccc(OCC(=O)NCCC[C@@H]4O[C@@H]5O[C@@]6(C)CC[C@H]7[C@H](C)CC[C@@H]([C@H]4C)[C@@]57OO6)c(O)c3)c2c1` [compound 11, 2-(2-hydroxy-4-((5-methyl-2-oxobenzo[d]oxazol-3(2H)-yl)methyl)phenoxy)-N-(3-((3R,5aS,6R,8aS,9R,10S,12R,12aR)-3,6,9-trimethyldecahydro-12H-3,12-epoxy[1,2]dioxepino[4,3-i]isochromen-10-yl)propyl)acetamide], for which the “inhibition of cancer cell growth (average % inhibition)” value in assay [5] (setting [6]) is recorded as “substantial anti-cancer activity”.
